Assay results taken from US5610176A, “Tachykinin (NK1) receptor antagonists” (Warner-Lambert Company, priority 1995, dated 1997).
Where a name gives a salt, the structure may show the parent alone. Read-outs that look alike come from different tables or passages of the source.

Legend:
[1] = molecular target: T1, NK1 receptor (Cavia porcellus, UniProt P30547); assay: NK1 antagonist activity in an in vitro NK1 preparation (guinea pig ileum), antagonism of substance-P methylester; type: cell-based; conditions: vs substance-P methylester
T1 construct: Guinea Pig Ileum; from tissue; host or cells: guinea pig ileum
Excerpt: Therefore, it is expected to be useful in the therapeutic disorders when the attenuation of the NK1 receptor response is the appropriate form of intervention.

[2] = molecular target: T1, NK1 receptor; assay: Inhibition of SPOMe-induced plasma protein extravasation in the guinea pig bladder; type: in vivo
Excerpt: They antagonize the ability of a NK1 receptor selective agonist (SPOMe) to induce plasma protein extravasation in the guinea pig bladder. The protocol is similar to that described by Eglezos, et al., Eur. J. Pharmacol., 209: 277-279 (1991).

[3] = molecular target: T2, tachykinin NK1 receptor (Homo sapiens, UniProt P25103); assay: NK1 binding in human IM9 lymphoma cells, displacement of [125I]Bolton Hunter Substance-P
T2 construct: tachykinin NK1 receptor sites in human IM9 lymphoma cells; endogenous in cells; host or cells: human IM9 lymphoma cells
T2 sequence (P25103 whole entry): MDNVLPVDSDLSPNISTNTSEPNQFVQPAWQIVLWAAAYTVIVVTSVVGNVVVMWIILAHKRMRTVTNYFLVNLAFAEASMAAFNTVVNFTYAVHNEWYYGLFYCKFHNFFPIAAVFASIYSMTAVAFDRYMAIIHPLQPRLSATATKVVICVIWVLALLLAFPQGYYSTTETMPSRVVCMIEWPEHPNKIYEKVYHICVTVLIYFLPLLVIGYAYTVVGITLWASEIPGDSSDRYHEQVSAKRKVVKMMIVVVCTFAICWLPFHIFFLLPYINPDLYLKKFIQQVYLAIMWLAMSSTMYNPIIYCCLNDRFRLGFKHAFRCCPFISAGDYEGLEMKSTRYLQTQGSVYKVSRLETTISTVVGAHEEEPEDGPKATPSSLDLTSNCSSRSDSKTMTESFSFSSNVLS

T1 sequence (P30547 whole entry): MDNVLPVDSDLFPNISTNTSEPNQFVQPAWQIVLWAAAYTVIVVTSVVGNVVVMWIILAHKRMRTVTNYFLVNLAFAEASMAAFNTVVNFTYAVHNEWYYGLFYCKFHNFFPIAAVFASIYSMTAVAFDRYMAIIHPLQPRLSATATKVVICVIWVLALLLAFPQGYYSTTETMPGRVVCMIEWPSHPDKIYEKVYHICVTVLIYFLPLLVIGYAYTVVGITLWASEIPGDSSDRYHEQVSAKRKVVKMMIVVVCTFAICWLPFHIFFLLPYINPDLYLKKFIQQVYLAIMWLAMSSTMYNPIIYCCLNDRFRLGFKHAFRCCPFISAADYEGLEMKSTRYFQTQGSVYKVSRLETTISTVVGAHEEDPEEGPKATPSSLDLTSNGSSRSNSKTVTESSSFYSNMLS

Structure (SMILES)	Kb [1] [nM]	ED50 ([2]; IV, read-out: ID50 (IV)) [mg/kg]	ED50 ([2]; PO, read-out: ID50 (PO)) [mg/kg]	IC50 [3] [nM]
C[C@](Cc1c[nH]c2ccccc12)(NC(=O)OCc1cc2ccccc2o1)C(=O)N[C@@H](CO)c1ccccc1 [Example 6, Carbamic acid, [2-[(2-hydroxy-1-phenylethyl)amino]-1-(1H-indol-3-ylmethyl)-1-methyl-2-oxoethyl]-, 2-benzofuranylmethyl ester, [R-(R*,R*)]-]	1.3	0.16	30	1.2
C[C@](Cc1c[nH]c2ccccc12)(NC(=O)OCc1cc2ccccc2o1)C(=O)N[C@@H](CN)c1ccccc1 [Example 8, Carbamic acid, [2-[(2-amino-1-phenylethyl)amino]-1-(1H-indol-3-ylmethyl)-1-methyl-2-oxoethyl]-, 2-benzofuranylmethyl ester [R-(R*,R*)]-]	16	–	–	13
CN(C)CC(=O)OC[C@H](NC(=O)[C@@](C)(Cc1c[nH]c2ccccc12)NC(=O)OCc1cc2ccccc2o1)c1ccccc1 [Example 9, Glycine, N,N-dimethyl-, 2-[[2-[[(2-benzofuranylmethoxy)carbonyl]amino]-3-(1H-indol-3-yl)-2-methyl-1-oxopropyl]amino]-2-phenylethyl ester, monohydrochloride, [R-(R*,R*)]-]	6.2	0.16	4.4	12
CN(C)CC(=O)NC[C@H](NC(=O)[C@@](C)(Cc1c[nH]c2ccccc12)NC(=O)OCc1cc2ccccc2o1)c1ccccc1 [Example 10, Carbamic acid, [2-[[(2-[[(dimethylamino)acetyl]amino]-1-phenylethyl]amino]-1-(1H-indol-3-ylmethyl)-1-methyl-2-oxoethyl]-, 2-benzofuranylmethyl ester, monohydrochloride, [R-(R*,R*)]-]	–	–	–	84
CC(C)C[C@H](N)C(=O)OC[C@H](NC(=O)[C@@](C)(Cc1c[nH]c2ccccc12)NC(=O)OCc1cc2ccccc2o1)c1ccccc1 [Example 12, L-Leucine, 2-[[2-[[(2-benzofuranylmethoxy)carbonyl]amino]-3-(1H-indol-3-yl)-2-methyl-1-oxopropyl]amino]-2-phenylethyl ester, [R-(R*,R*)]-]	22	–	–	16
C[C@](Cc1c[nH]c2ccccc12)(NC(=O)OCc1ccccc1)C(=O)N[C@@H](CO)c1ccccc1 [Example 15, Carbamic acid, [2-[(2-hydroxy-1-phenylethyl)amino]-1-(1H-indol-3-ylmethyl)-1-methyl-2-oxoethyl]-, phenylmethyl ester, [R-(R* R*)]-]	–	–	–	58
C[C@](Cc1c[nH]c2ccccc12)(NC(=O)OCc1ccccc1F)C(=O)N[C@@H](CO)c1ccccc1 [Example 16, Carbamic acid, [2-[(2-hydroxy-1-phenylethyl)amino]-1-(1H-indol-3-ylmethyl)-1-methyl-2-oxoethyl]-, (2-fluorophenyl)methyl ester, [R-(R*,R*)]-]	10.6	–	–	3.3
C[C@](Cc1c[nH]c2ccccc12)(NC(=O)OCc1cc(F)ccc1F)C(=O)N[C@@H](CO)c1ccccc1 [Example 17, Carbamic acid, [2-[(2-hydroxy-1-phenylethyl)amino]-1-(1H-indol-3-ylmethyl)-1-methyl-2-oxoethyl]-, (2,5-difluorophenyl)methyl ester, [R-(R*,R*)]]	9.3	–	–	3.9
C[C@](Cc1c[nH]c2ccccc12)(NC(=O)OCc1cc2ccccc2s1)C(=O)N[C@@H](CO)c1ccccc1 [Example 18, Carbamic acid, [2-[(2-hydroxy-1-phenylethyl)amino]-1-(1H-indol-3-ylmethyl)-1-methyl-2-oxoethyl]-, benzo[b]thien-2-ylmethyl ester, [R-(R*,R*)]-]	6.3	–	–	9
